The values below come from PubChem BioAssay (NCI).

Among the test systems are COLO 205 colon; NCI-H522 lung; SF-539 CNS; SK-OV-3 ovarian; SN12C renal; A498 renal; NCI-H226 lung; RPMI-8226 leukemia; A549 NSCLC; EKVX NSCLC.
What all share (assay): inhibition of tumour cell growth, NCI panel, 48 h

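Grown in 96-well plates, cells were treated for 48 hours with each compound at five concentrations. Insufficient inhibition: endpoint recorded as highest concentration tested. GI50: concentration for 50% inhibition of growth. TGI: concentration producing complete growth inhibition.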

As to `O=C(O)CSCc1cccc2ccccc12`, the TGI in the experiment with COLO 205 colon, in the experiment with NCI-H522 lung, with SF-539 CNS, in the experiment on SK-OV-3 ovarian, in the experiment on SN12C renal and with A498 renal was over 100 µM each time. The TGI with NCI-H226 lung, in the experiment on RPMI-8226 leukemia, with A549 NSCLC and in the experiment on EKVX NSCLC was over 100 µM each time.

Turning to `COc1ccc(C#Cc2ccccc2C#CCCCCO)cc1`, the GI50 in the experiment with COLO 205 colon was 17.6 µM; in the experiment on NCI-H522 lung, 18.6 µM; in the experiment with SF-539 CNS, 22.6 µM; in the experiment on SK-OV-3 ovarian it was 19.9 µM; in the experiment on SN12C renal, 11 µM; in the experiment with A498 renal, 24.1 µM. Further, the GI50 was 17.3 µM with NCI-H226 lung, 27.3 µM in the experiment on RPMI-8226 leukemia, 18.2 µM with A549 NSCLC and 23.6 µM with EKVX NSCLC. In addition, the TGI in the experiment with COLO 205 colon turned out to be 33.4 µM; in the experiment on NCI-H522 lung, 34.9 µM; in the experiment with SF-539 CNS, 42.8 µM; in the experiment with SK-OV-3 ovarian it was 39.7 µM; in the experiment with SN12C renal it was 23.7 µM; in the experiment on A498 renal, 66.4 µM. The TGI in the experiment with NCI-H226 lung turned out to be 36.1 µM; in the experiment on RPMI-8226 leukemia, 72.7 µM; in the experiment on A549 NSCLC it was 33.7 µM; in the experiment on EKVX NSCLC it was 54 µM.

Turning to `O=C1c2ccccc2C2(O)Nc3cc(O)ccc3C12O` (stereo not given), the TGI in the experiment with COLO 205 colon, in the experiment on NCI-H522 lung, in the experiment on SF-539 CNS, in the experiment on SK-OV-3 ovarian, in the experiment with SN12C renal and with A498 renal was over 100 µM each time. The TGI with NCI-H226 lung, with RPMI-8226 leukemia, in the experiment on A549 NSCLC and in the experiment with EKVX NSCLC was over 100 µM throughout.

`COC1=CC(c2ccc[nH]2)=N/C1=C\c1[nH]c(C)c(C(=O)OCc2ccccc2)c1C`: the GI50 is 0.165 µM in the experiment on COLO 205 colon; 0.0968 µM in the experiment with NCI-H522 lung; 0.111 µM with SF-539 CNS; 0.824 µM with SK-OV-3 ovarian; 0.0849 µM with SN12C renal; 0.169 µM in the experiment with A498 renal. The GI50 was 0.132 µM in the experiment on NCI-H226 lung, 0.116 µM in the experiment with RPMI-8226 leukemia, 0.0826 µM in the experiment on A549 NSCLC and 0.206 µM in the experiment with EKVX NSCLC. The TGI was 1.48 µM in the experiment with COLO 205 colon; 1.15 µM in the experiment with NCI-H522 lung; 1.54 µM in the experiment with SF-539 CNS; 4.86 µM in the experiment with SK-OV-3 ovarian; 1.88 µM in the experiment with SN12C renal; 1.02 µM in the experiment on A498 renal. The TGI with NCI-H226 lung was 1.52 µM; with RPMI-8226 leukemia, 1.8 µM; with A549 NSCLC, 4.68 µM; in the experiment on EKVX NSCLC, 3.64 µM.

On to `C=C1C(=O)O[C@H]2[C@H]1CC/C(CNC(=O)/C=C/c1ccc(Br)cc1)=C\CC[C@@]1(C)O[C@@H]21`, for which the GI50 with COLO 205 colon is 0.987 µM; in the experiment with NCI-H522 lung, 0.711 µM; in the experiment on SF-539 CNS, 0.873 µM; in the experiment with SK-OV-3 ovarian, 3.89 µM; with SN12C renal, 1.22 µM; in the experiment with A498 renal, 0.236 µM. Moreover, the GI50 is 2.24 µM with NCI-H226 lung, 0.448 µM with RPMI-8226 leukemia, 2.43 µM in the experiment with A549 NSCLC and 1.46 µM with EKVX NSCLC. Besides, the TGI in the experiment with COLO 205 colon is 2.75 µM; in the experiment on NCI-H522 lung it was 2.3 µM; in the experiment on SF-539 CNS, 2.28 µM; in the experiment on SK-OV-3 ovarian, 12.5 µM; in the experiment on SN12C renal it was 3.58 µM; with A498 renal, 2.45 µM. Moreover, the TGI is 7.15 µM with NCI-H226 lung, 3.26 µM in the experiment on RPMI-8226 leukemia, 8.72 µM in the experiment on A549 NSCLC and 2.91 µM with EKVX NSCLC.

On to `CN(C)CCCOc1ccccc1NC1=C(Cl)C(=O)C(Nc2ccccc2OCCCN(C)C)=C(Cl)C1=O`, for which the GI50 is 0.194 µM with COLO 205 colon; 0.17 µM in the experiment with NCI-H522 lung; 1.66 µM in the experiment on SF-539 CNS; 1.66 µM with SK-OV-3 ovarian; 0.165 µM in the experiment on SN12C renal; 1.84 µM with A498 renal. The GI50 with NCI-H226 lung is 1.98 µM; in the experiment with RPMI-8226 leukemia it was 2.01 µM; in the experiment with A549 NSCLC it was 1.51 µM; with EKVX NSCLC, 0.693 µM. The TGI with COLO 205 colon amounted to 0.399 µM; in the experiment on NCI-H522 lung it was 0.383 µM; in the experiment with SF-539 CNS, 3.04 µM; with SK-OV-3 ovarian, 3.02 µM; in the experiment with SN12C renal it was 0.319 µM; with A498 renal it was 5.6 µM. The TGI with NCI-H226 lung was 4.22 µM; with RPMI-8226 leukemia it was 5.07 µM; in the experiment with A549 NSCLC, 2.94 µM; in the experiment on EKVX NSCLC, 1.97 µM.

For the compound `Cc1nc2sccn2c1/C=C1/C(=O)Nc2ccccc21`, the GI50 was 3.11 µM in the experiment on COLO 205 colon; 1.85 µM in the experiment on NCI-H522 lung; 3.14 µM in the experiment with SF-539 CNS; 24 µM in the experiment with SK-OV-3 ovarian; 5.69 µM with SN12C renal; 1.68 µM in the experiment on A498 renal. In addition, the GI50 in the experiment on NCI-H226 lung is 23.9 µM; in the experiment on RPMI-8226 leukemia, 7.16 µM; in the experiment with A549 NSCLC it was 7.65 µM; with EKVX NSCLC, 27.6 µM. The TGI with COLO 205 colon is over 45.9 µM; in the experiment with NCI-H522 lung it was 22 µM; with SF-539 CNS, 17.8 µM; in the experiment on SK-OV-3 ovarian, over 93.3 µM; in the experiment with SN12C renal, over 100 µM; in the experiment on A498 renal it was 9.72 µM. The TGI in the experiment with NCI-H226 lung, in the experiment with RPMI-8226 leukemia, in the experiment with A549 NSCLC and in the experiment on EKVX NSCLC was over 100 µM in each case.

With `O=C(O)c1ccccc1Cc1ccco1`, the TGI with COLO 205 colon, in the experiment with NCI-H522 lung, in the experiment on SF-539 CNS, in the experiment on SK-OV-3 ovarian, in the experiment with SN12C renal and in the experiment on A498 renal was over 100 µM in each case. The TGI with NCI-H226 lung, with RPMI-8226 leukemia, in the experiment on A549 NSCLC and in the experiment with EKVX NSCLC was over 100 µM each time.

For the compound `Cc1ccc(NCCCN2CCN(CCCNc3ccc(C)c4sc5ccccc5c(=O)c34)CC2)c2c(=O)c3ccccc3sc12`, the TGI in the experiment with COLO 205 colon, in the experiment on NCI-H522 lung, in the experiment with SF-539 CNS, in the experiment on SK-OV-3 ovarian, with SN12C renal and in the experiment on A498 renal was over 100 µM each time. The TGI with NCI-H226 lung, in the experiment on RPMI-8226 leukemia, in the experiment with A549 NSCLC and in the experiment with EKVX NSCLC was over 100 µM each time.

`COc1cc2c(cc1O)C=NCC2`: the TGI with COLO 205 colon, in the experiment on NCI-H522 lung, in the experiment with SF-539 CNS, in the experiment with SK-OV-3 ovarian, in the experiment on SN12C renal and in the experiment with A498 renal was over 100 µM in each case. Moreover, the TGI in the experiment with NCI-H226 lung, in the experiment on RPMI-8226 leukemia, with A549 NSCLC and with EKVX NSCLC was over 100 µM throughout.

On to `Nc1ccn(C2OC(CO)C(O)C2F)c(=O)n1` (stereo not given), for which the GI50 in the experiment on COLO 205 colon is 688 µM; in the experiment with NCI-H522 lung, 3990 µM; in the experiment with SF-539 CNS, over 5000 µM; with SK-OV-3 ovarian, over 5000 µM; in the experiment on SN12C renal, over 5000 µM; in the experiment on A498 renal it was over 5000 µM. For the same compound, the GI50 in the experiment on NCI-H226 lung, in the experiment on RPMI-8226 leukemia, in the experiment with A549 NSCLC and in the experiment on EKVX NSCLC was over 5000 µM throughout. The TGI with COLO 205 colon, with NCI-H522 lung, in the experiment with SF-539 CNS, in the experiment with SK-OV-3 ovarian, in the experiment with SN12C renal and in the experiment with A498 renal was over 5000 µM each time. The TGI with NCI-H226 lung, in the experiment with RPMI-8226 leukemia, with A549 NSCLC and in the experiment with EKVX NSCLC was over 5000 µM throughout.

On to `COc1cccc(C2CC(c3cc(OC)c(OC)c(OC)c3)=NN2)c1` (stereo not given), for which the GI50 is 18.7 µM with COLO 205 colon; 12.8 µM in the experiment with NCI-H522 lung; 5.33 µM in the experiment with SF-539 CNS; 24.1 µM in the experiment on SK-OV-3 ovarian; 22.7 µM in the experiment on SN12C renal; 12.9 µM in the experiment with A498 renal. In addition, the GI50 in the experiment with NCI-H226 lung is 28.9 µM; with RPMI-8226 leukemia, 5.18 µM; in the experiment on A549 NSCLC, 21.7 µM; in the experiment on EKVX NSCLC it was 14.5 µM. Moreover, the TGI is 48.8 µM in the experiment with COLO 205 colon; 42.1 µM with NCI-H522 lung; 21.1 µM in the experiment on SF-539 CNS; 72.2 µM in the experiment with SK-OV-3 ovarian; over 100 µM in the experiment with SN12C renal; 38.6 µM in the experiment on A498 renal. The TGI in the experiment on NCI-H226 lung is over 100 µM; in the experiment with RPMI-8226 leukemia, 26 µM; with A549 NSCLC it was 87.2 µM; in the experiment on EKVX NSCLC it was 46.1 µM.

In the case of `C(=Nc1ccccc1)C1CCCC[N-]1.C(=Nc1ccccc1)C1CCCC[N-]1.[Cu+2].[O-][Cl+3]([O-])([O-])O` (stereo not given), the GI50 in the experiment with COLO 205 colon was 12.8 µM; in the experiment with NCI-H522 lung it was 13.3 µM; in the experiment on SF-539 CNS, 17.7 µM; in the experiment with SK-OV-3 ovarian, 0.704 µM; in the experiment on SN12C renal, 15.4 µM; with A498 renal, 18.1 µM. Also, the GI50 is 21.6 µM in the experiment on NCI-H226 lung, 3.52 µM in the experiment on RPMI-8226 leukemia, over 36.8 µM with A549 NSCLC and 19 µM in the experiment with EKVX NSCLC. Besides, the TGI in the experiment on COLO 205 colon is over 52.2 µM; in the experiment on NCI-H522 lung it was 52.1 µM; with SF-539 CNS it was 42.3 µM; in the experiment with SK-OV-3 ovarian, 35.8 µM; in the experiment with SN12C renal it was 36.1 µM; with A498 renal, 44.9 µM. In addition, the TGI in the experiment with NCI-H226 lung was 50 µM; in the experiment with RPMI-8226 leukemia, 10.9 µM; in the experiment on A549 NSCLC it was over 57.1 µM; with EKVX NSCLC, 58.1 µM.
